# Assay results taken from patent publication US10144706B2 (BRISTOL-MYERS SQUIBB COMPANY, priority 2016, dated 2018).
# Where a name gives a salt, the structure may show the parent alone.
# Molecular target: T1, PD-1/PD-L1 interaction (PD-1-Ig / PD-L1-His) (Homo sapiens, UniProt Q9NZQ7)
# T1 construct: hPDL1(18-239)-TVMV-His; TVMV protease site linker (C); made in house; host or cells: HEK293T
# Assay: PD-1/PD-L1 Homogenous Time-Resolved Fluorescence (HTRF) binding assay
# Conditions: IC50 range class; PD-L1-His 10 nM, PD-1-Ig 20 nM; read-out: Range or IC50
# Method in brief: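 Human PD-L1-His (10 nM final) was pre-incubated with inhibitor for 15 min, then PD-1-Ig (20 nM final) was added for a further 15 min in dPBS with 0.1% BSA and 0.05% Tween-20. Binding was detected by HTRF using Eu-cryptate anti-Ig (1 nM) and APC anti-His (20 nM).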
# T1 sequence (Q9NZQ7 with tags, fused parts or gaps): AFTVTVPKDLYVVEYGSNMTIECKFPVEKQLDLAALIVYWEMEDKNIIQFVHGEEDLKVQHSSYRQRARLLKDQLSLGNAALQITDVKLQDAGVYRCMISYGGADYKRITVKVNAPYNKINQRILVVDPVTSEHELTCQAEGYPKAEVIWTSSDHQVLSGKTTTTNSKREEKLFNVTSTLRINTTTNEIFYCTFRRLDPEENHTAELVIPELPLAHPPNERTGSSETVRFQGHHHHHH
row,Compound,IC50
1,Cc1c(COc2cc(OCc3cncc(C#N)c3)c(CNC(Cc3ccccc3)C(N)=O)cc2Cl)cccc1-c1cccc(COc2cc(OCc3cncc(C#N)c3)c(CNC(Cc3ccccc3)C(N)=O)cc2Cl)c1C (centres unmarked) [Example 40590],90.1 to 1000 nM
2,Cc1c(COc2cc(OCc3cncc(C#N)c3)c(CO)cc2Cl)cccc1-c1cccc(COc2cc(OCc3cncc(C#N)c3)c(CN[C@@H](C(=O)O)[C@H](C)O)cc2Cl)c1C [Example 50180],0.04 to 20 nM
3,"Cc1c(COc2cc(OCc3ccc(-n4cccn4)nc3)c(CN(C)C(C)(CO)CO)cc2Cl)cccc1-c1cccc(COc2cc(OCc3ccc(-n4cccn4)nc3)c(CN(C)C(C)(CO)CO)cc2Cl)c1C [Example 5023, 2,2′-((((((2,2′-dimethyl-[1,1′-biphenyl]-3,3′-diyl)bis(methylene))bis(oxy))bis(2-((6-(1H-pyrazol-1-yl)pyridin-3-yl)methoxy)-5-chloro-4,1-phenylene))bis(methylene))bis(methylazanediyl))bis(2-methylpropane-1,3-diol)]",20.1 to 90 nM
4,COC(=O)[C@@H]1CCCCN1Cc1cc(Cl)c(OCc2cccc(-c3cccc(COc4cc(OCc5cncc(C#N)c5)c(CN5CCCC[C@H]5C(=O)OC)cc4Cl)c3C)c2C)cc1OCc1cncc(C#N)c1 [Example 40300],90.1 to 1000 nM
5,N#Cc1cncc(COc2cc(OCc3cccc(-c4cccc(COc5cc(OCc6cncc(C#N)c6)c(CNC(CCO)C(=O)O)cc5Cl)c4Cl)c3Cl)c(Cl)cc2CNC(CCO)C(=O)O)c1 (centres unmarked) [Example 40170],0.04 to 20 nM
6,"Cc1c(OCCCN(C)Cc2ccncc2)cccc1-c1cccc(OCCCN2CC[C@@H](O)C2)c1C [Example 2064, (R)-1-(3-((2,2′-dimethyl-3′-(3-(methyl(pyridin-4-ylmethyl)amino)propoxy)-[1,1′-biphenyl]-3-yl)oxy)propyl)pyrrolidin-3-ol]",20.1 to 90 nM
7,"Cc1c(COc2cc(OCc3ccc(-n4cccn4)nc3)c(CN(C)C(C)(C)C(=O)O)cc2Cl)cccc1-c1cccc(COc2cc(OCc3ccc(-n4cccn4)nc3)c(CN(C)C(C)(C)C(=O)O)cc2Cl)c1C [Example 5024, 2,2′-((((((2,2′-dimethyl-[1,1′-biphenyl]-3,3′-diyl)bis(methylene))bis(oxy))bis(2-((6-(1H-pyrazol-1-yl)pyridin-3-yl)methoxy)-5-chloro-4,1-phenylene))bis(methylene))bis(methylazanediyl))bis(2-methylpropanoic acid)]",0.04 to 20 nM
8,Cc1c(COc2cc(OCc3cncc(C#N)c3)c(CO)cc2Cl)cccc1-c1cccc(COc2cc(OCc3cncc(C#N)c3)c(CN3CCCC(C(=O)O)C3)cc2Cl)c1C (centres unmarked) [Example 50110],0.04 to 20 nM
9,"Cc1c(OCCCN2CCN(CCO)CC2)cccc1-c1cccc(OCCCN2CC[C@@H](O)C2)c1C [Example 2063, (R)-1-(3-((3′-(3-(4-(2-hydroxyethyl)piperazin-1-yl)propoxy)-2,2′-dimethyl-[1,1′-biphenyl]-3-yl)oxy)propyl)pyrrolidin-3-ol]",20.1 to 90 nM
10,Cc1c(COc2cc(OCc3cncc(C#N)c3)c(CN[C@H](C(=O)O)C(C)(C)O)cc2Cl)cccc1-c1cccc(COc2cc(OCc3cncc(C#N)c3)c(CN[C@H](C(=O)O)C(C)(C)O)cc2Cl)c1C [Example 40090],0.04 to 20 nM
11,"Cc1c(OCCCNCCN2CCOCC2)cccc1-c1cccc(OCCCN2CC[C@@H](O)C2)c1C [Example 2005, (R)-1-(3-((2,2′-dimethyl-3′-(3-((2-morpholinoethyl)amino)propoxy)-[1,1′-biphenyl]-3-yl)oxy)propyl)pyrrolidin-3-ol]",20.1 to 90 nM
12,"Cc1c(OCCCN2CC[C@@H](O)C2)cccc1-c1cccc(OCCCN2CC[C@@H](O)C2)c1C(F)(F)F [Example 3026, (3R,3′R)-1,1′-(((2-methyl-2′-(trifluoromethyl)-[1,1′-biphenyl]-3,3′-diyl)bis(oxy))bis(propane-3,1-diyl))bis(pyrrolidin-3-ol), 2 TFA]",90.1 to 1000 nM
13,"COCC(O)CNCCCOc1cccc(-c2cccc(OCCCNCC(O)COC)c2C)c1C (centres unmarked) [Example 2094, 3,3′-((((2,2′-dimethyl-[1,1′-biphenyl]-3,3′-diyl)bis(oxy))bis(propane-3,1-diyl))bis(azanediyl))bis(1-methoxypropan-2-ol)]",0.04 to 20 nM
14,Cc1c(COc2cc(OCc3cncc(C#N)c3)c(CNC(C)(CO)CO)cc2Cl)cccc1-c1cccc(COc2cc(OCc3cncc(C#N)c3)c(CNC(C)(CO)CO)cc2Cl)c1C [Example 40250],0.04 to 20 nM
15,"COc1cc(OCc2cccc(-c3cccc(COc4cc(OC)c(CN[C@@H](CCO)C(=O)O)cc4Cl)c3C)c2C)c(Cl)cc1CN[C@@H](CCO)C(=O)O [Example 5036, (2S,2′S)-2,2′-((((((2,2′-dimethyl-[1,1′-biphenyl]-3,3′-diyl)bis(methylene))bis(oxy))bis(5-chloro-2-methoxy-4,1-phenylene))bis(methylene))bis(azanediyl))bis(4-hydroxybutanoic acid)]",0.04 to 20 nM
16,N#Cc1cncc(COc2cc(OCc3cccc(-c4cccc(COc5cc(OCc6cncc(C#N)c6)c(C(=O)NCC6CCCO6)cc5Cl)c4Cl)c3Cl)c(Cl)cc2C(=O)O)c1 (centres unmarked) [Example 90060],1000 to 10000 nM
17,"Cc1c(OCCCNCc2ccncc2)cccc1-c1cccc(OCCCN2CC[C@@H](O)C2)c1C [Example 2006, (R)-1-(3-((2,2′-dimethyl-3′-(3-((pyridin-4-ylmethyl)amino)propoxy)-[1,1′-biphenyl]-3-yl)oxy)propyl)pyrrolidin-3-ol]",90.1 to 1000 nM
18,Cc1c(COc2cc(OCc3cncc(C#N)c3)c(CN3CCC[C@H]3C(=O)O)cc2Cl)cccc1-c1cccc(COc2cc(OCc3cncc(C#N)c3)c(CN3CCC[C@H]3C(=O)O)cc2Cl)c1C [Example 40350],0.04 to 20 nM
19,"Cc1c(OCCCNC[C@H](O)CO)cccc1-c1cccc(OCCCN2CCC[C@H](C(=O)O)C2)c1C [Example 2081, (S)-1-(3-((3′-(3-(((S)-2,3-dihydroxypropyl)amino)propoxy)-2,2′-dimethyl-[1,1′-biphenyl]-3-yl)oxy)propyl)piperidine-3-carboxylic acid]",20.1 to 90 nM
20,"Cc1c(COc2cc(OCc3cc(F)cc(F)c3)c(CN(C)C(CO)CO)cc2Cl)cccc1-c1cccc(COc2cc(OCc3cc(F)cc(F)c3)c(CN(C)C(CO)CO)cc2Cl)c1C [Example 5005, 2,2′-((((((2,2′-dimethyl-[1,1′-biphenyl]-3,3′-diyl)bis(methylene))bis(oxy))bis(5-chloro-2-((3,5-difluorobenzyl)oxy)-4,1-phenylene))bis(methylene))bis(methylazanediyl))bis(propane-1,3-diol)]",90.1 to 1000 nM
21,"Cc1c(OCCCNCc2ccccn2)cccc1-c1cccc(OCCCN2CC[C@@H](O)C2)c1C [Example 2024, (R)-1-(3-((2,2′-dimethyl-3′-(3-((pyridin-2-ylmethyl)amino)propoxy)-[1,1′-biphenyl]-3-yl)oxy)propyl)pyrrolidin-3-ol]",20.1 to 90 nM
22,"Cc1c(OCCCN2CCC(O)(CC(=O)O)C2)cccc1-c1cccc(OCCCN2CCC(O)(CC(=O)O)C2)c1Cl (centres unmarked) [Example 1001, 2,2′-((((2-chloro-2′-methyl-[1,1′-biphenyl]-3,3′-diyl)bis(oxy))bis(propane-3,1-diyl))bis(3-hydroxypyrrolidine-1,3-diyl))diacetic acid]",20.1 to 90 nM
23,N#Cc1cncc(COc2cc(OCc3cccc(-c4cccc(COc5cc(OCc6cncc(C#N)c6)c(CN6CCCCC6)cc5Cl)c4)c3)c(Cl)cc2CN2CCCCC2)c1 [Example 40060],20.1 to 90 nM
24,"Cc1c(OCCCN(C)CC(O)CO)cccc1-c1cccc(OCCCN(C)CC(O)CO)c1C (mixture of isomers) [Example 2078, 3,3′-((((2,2′-dimethyl-[1,1′-biphenyl]-3,3′-diyl)bis(oxy))bis(propane-3,1-diyl))bis(methylazanediyl))bis(propane-1,2-diol)]",0.04 to 20 nM
25,"Cc1c(COc2cc(OCc3cncc(C#N)c3)c(CNC(CO)CO)cc2Cl)cccc1-c1cccc(COc2cc(OCc3cncc(C#N)c3)c(CNC(CO)CO)cc2Cl)c1C [Example 2128, 5,5′-((((((2,2′-dimethyl-[1,1′-biphenyl]-3,3′-diyl)bis(methylene))bis(oxy))bis(4-chloro-6-(((1,3-dihydroxypropan-2-yl)amino)methyl)-3,1-phenylene))bis(oxy))bis(methylene))dinicotinonitrile]",0.04 to 20 nM
26,"COc1cc(OCc2cccc(-c3cccc(COc4cc(OCc5cncc(C#N)c5)c(CN(C)[C@@H](CCO)C(=O)O)cc4Cl)c3C)c2C)c(Cl)cc1CN(C)[C@@H](CCO)C(=O)O [Example 5030, N-(4-((3′-((4-((((S)-1-carboxy-3-hydroxypropyl)(methyl)amino)methyl)-2-chloro-5-((5-cyanopyridin-3-yl)methoxy)phenoxy)methyl)-2,2′-dimethyl-[1,1′-biphenyl]-3-yl)methoxy)-5-chloro-2-methoxybenzyl)-N-methyl-L-homoserine]",0.04 to 20 nM
27,"Cc1c(COc2cc(OCc3cc(F)cc(F)c3)c(CN(C)[C@H](C(=O)O)C(C)C)cc2Cl)cccc1-c1cccc(COc2cc(OCc3cc(F)cc(F)c3)c(CN(C)[C@H](C(=O)O)C(C)C)cc2Cl)c1C [Example 5015, (2S,2′S)-2,2′-((((((2,2′-dimethyl-[1,1′-biphenyl]-3,3′-diyl)bis(methylene))bis(oxy))bis(5-chloro-2-((3,5-difluorobenzyl)oxy)-4,1-phenylene))bis(methylene))bis(methylazanediyl))bis(3-methylbutanoic acid)]",20.1 to 90 nM
28,"Cc1c(OCCCNCCO)cccc1-c1cccc(OCCCNCCO)c1C [Example 2027, 2,2′-((((2,2′-dimethyl-[1,1′-biphenyl]-3,3′-diyl)bis(oxy))bis(propane-3,1-diyl))bis(azanediyl))bis(ethan-1-ol)]",20.1 to 90 nM

# Same assay, conditions: numeric IC50; PD-L1-His 10 nM, PD-1-Ig 20 nM; read-out: Range or IC50
row,Compound,IC50
1,CC(=O)c1cc(Cl)c(OCc2cccc(-c3cccc(COc4cc(OCc5cncc(C#N)c5)c(CNC(C)(CO)C(=O)O)cc4Cl)c3C)c2C)cc1OCc1cncc(C#N)c1 (centres unmarked) [Example 60030],6 nM
